Values of other authors in patent US20050101653A1, “Combination therapy for the treatment of migraine” (priority 1999, published 2005).

System: carotid vascular resistance
Details: anaesthetized dog

## CNS(=O)(=O)Cc1ccc2[nH]cc(CCN(C)C)c2c1 [Sumatriptan, sumatriptan]
  effect on carotid vascular resistance: selective increase in carotid vascular resistance
